Earlier results, collected in US20240057588A1, “HERBICIDAL FORMULATION IN THE FORM OF MICROEMULSION” (RED SURCOS COLOMBIA LTDA, priority 2018, published 2024).

Assays:
[1] = qualitative

| Structure (SMILES) | Solubility in water | Solubility in organic solvents / other media [1] |
| --- | --- | --- |
| CN1CCCC1=O [N-Methylpyrrolidone] | miscible | Miscible |
| O=C1CCCCC1 [Cyclohexanone] | slightly soluble | soluble in most organic solvents |
| O=C(O)CNCP(=O)(O)O [glyphosate, reference compound] | very low | – |
